Results taken from patent US20210392895A1, “NOVEL OXADIAZOLES” (PI INDUSTRIES LIMITED, priority 2018, published 2021).
Structures can show the parent of a compound that is named as a salt.

Columns and labels:
Fusarium culmorum = Fusarium culmorum (foot rot of cereals) in vitro test, radial growth on Potato Dextrose Agar; assay type: cell-based; conditions: 168 h, 25° C., seven days, read-out: control compared to the untreated check (radial growth)
Botrytis cinerea = Botrytis cinerea (gray mold) in vitro test, radial growth on Potato Dextrose Agar; assay type: cell-based; conditions: 168 h, compared to the untreated check, radial growth after seven days, read-out: control
Rhizoctonia solani = Rhizoctonia solani (rice sheath blight/potato black scurf) in vitro test, radial growth on Potato Dextrose Agar; assay type: cell-based; conditions: 168 h, compared to the untreated check, radial growth after seven days, read-out: control
Phakopsora pachyrhizi = Phakopsora pachyrhizi test in soybean (greenhouse, preventive activity, disease severity rating); assay type: in vivo; conditions: preventive spray on soybean, compared to the untreated check
Procedure, shortened: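 Greenhouse-raised young soybean plants sprayed with compound at stated rates, then inoculated one day later with 2.1×10^6 P. pachyrhizi spores and held at 25° C, 90% RH. Disease severity (0-100%) rated visually 3, 7, 10 and 15 days after application; % control calculated versus untreated plants.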

Corynespora cassicola = Corynespora cassicola (leaf spot of tomato) in vitro test, radial growth on Potato Dextrose Agar; assay type: cell-based; conditions: 168 h, compared to the untreated check, radial growth after seven days, read-out: control
Pyricularia oryzae = experiment: microbe, parasite or virus in culture; assay type: cell-based; conditions: 168 h, read-out: control
Colletotrichum capsici = Colletotrichum capsici (anthracnose) in vitro test, radial growth on Potato Dextrose Agar; conditions: Colletotrichum truncatum, 168 h, read-out: control
Procedure: Compounds were dissolved in 0.3% DMSO and then added to Potato Dextrose Agar medium just prior to dispensing it into petri dishes. 5 mL medium with compound in the desired concentration was dispensed into 60 mm sterile petri-plates. After solidification, each plate was seeded with a 5 mm size mycelial disc taken form the periphery of an actively growing virulent culture plate. Plates were incubated in growth chambers at 25° C. temperature and 60% relative humidity for seven days and radial growth was measured.

Alternaria solani = Alternaria solani (early blight of tomato/potato) in vitro test, radial growth on Potato Dextrose Agar; assay type: cell-based; conditions: 168 h, compared to the untreated check, radial growth after seven days, read-out: control

CC(=O)N1CC[C@H](Oc2ccc(-c3noc(C(F)(F)F)n3)cc2)C1 [Compound 2, (S)-1-(3-(4-(5-(trifluoromethyl)-1,2,4-oxadiazol-3-yl)phenoxy)pyrrolidin-1-yl)ethan-1-one]
> 70%: inhibition of growth at 300 ppm (Fusarium culmorum) | inhibition of growth at 300 ppm (Botrytis cinerea) | inhibition of growth at 300 ppm (Rhizoctonia solani) | pest or weed control at 500 ppm (Phakopsora pachyrhizi) | inhibition of growth at 300 ppm (Corynespora cassicola) | inhibition of growth at 300 ppm (Pyricularia oryzae) | inhibition of growth at 300 ppm (Colletotrichum capsici) | inhibition of growth at 300 ppm (Alternaria solani)

CCC(=O)N1CC(N(C)c2ccc(-c3noc(C(F)(F)F)n3)cc2)C1 [Compound 100, 1-(3-(methyl(4-(5-(trifluoromethyl)-1,2,4-oxadiazol-3-yl)phenyl)amino)azetidin-1-yl)propan-1-one]
> 70%: inhibition of growth at 300 ppm (Fusarium culmorum) | inhibition of growth at 300 ppm (Botrytis cinerea) | inhibition of growth at 300 ppm (Rhizoctonia solani) | pest or weed control at 500 ppm (Phakopsora pachyrhizi) | inhibition of growth at 300 ppm (Corynespora cassicola) | inhibition of growth at 300 ppm (Pyricularia oryzae) | inhibition of growth at 300 ppm (Colletotrichum capsici) | inhibition of growth at 300 ppm (Alternaria solani)

O=C(c1ccncc1)N1CC[C@H](Oc2ccc(-c3noc(C(F)(F)F)n3)c(F)c2)C1 [Compound 66, (S)-(3-(3-fluoro-4-(5-(trifluoromethyl)-1,2,4-oxadiazol-3-yl)phenoxy)pyrrolidin-1-yl)(pyridin-4-yl)methanone]
> 70%: inhibition of growth at 300 ppm (Fusarium culmorum) | inhibition of growth at 300 ppm (Botrytis cinerea) | inhibition of growth at 300 ppm (Rhizoctonia solani) | inhibition of growth at 300 ppm (Corynespora cassicola) | inhibition of growth at 300 ppm (Pyricularia oryzae) | inhibition of growth at 300 ppm (Colletotrichum capsici) | inhibition of growth at 300 ppm (Alternaria solani)

FC(F)(F)c1nc(-c2ccc(O[C@H]3CCN(Cc4ccc(Cl)cc4)C3)cc2)no1 [Compound 180, (S)-3-(4-((1-(4-chlorobenzyl)pyrrolidin-3-yl)oxy)phenyl)-5-(trifluoromethyl)-1,2,4-oxadiazole]
> 70%: inhibition of growth at 300 ppm (Botrytis cinerea) | inhibition of growth at 300 ppm (Corynespora cassicola) | inhibition of growth at 300 ppm (Pyricularia oryzae) | inhibition of growth at 300 ppm (Colletotrichum capsici) | inhibition of growth at 300 ppm (Alternaria solani)

O=C(c1cccnc1)N1CC[C@H](Oc2ccc(-c3noc(C(F)(F)F)n3)cc2)C1 [Compound 12, (S)-pyridin-3-yl(3-(4-(5-(trifluoromethyl)-1,2,4-oxadiazol-3-yl)phenoxy)pyrrolidin-1-yl)methanone]
> 70%: inhibition of growth at 300 ppm (Fusarium culmorum) | inhibition of growth at 300 ppm (Rhizoctonia solani) | pest or weed control at 500 ppm (Phakopsora pachyrhizi) | inhibition of growth at 300 ppm (Pyricularia oryzae) | inhibition of growth at 300 ppm (Colletotrichum capsici) | inhibition of growth at 300 ppm (Alternaria solani)

CC(=O)N1CCC(Oc2ccc(-c3noc(C(F)(F)F)n3)cc2)CC1 [Compound 95, 1-(4-(4-(5-(trifluoromethyl)-1,2,4-oxadiazol-3-yl)phenoxy)piperidin-1-yl)ethan-1-one]
> 70%: inhibition of growth at 300 ppm (Fusarium culmorum) | inhibition of growth at 300 ppm (Botrytis cinerea) | inhibition of growth at 300 ppm (Rhizoctonia solani) | inhibition of growth at 300 ppm (Corynespora cassicola) | inhibition of growth at 300 ppm (Pyricularia oryzae) | inhibition of growth at 300 ppm (Colletotrichum capsici) | inhibition of growth at 300 ppm (Alternaria solani)

O=C(c1cocn1)N1CC[C@H](Oc2ccc(-c3noc(C(F)(F)F)n3)cn2)C1 [Compound 199, (S)-oxazol-4-yl(3-((5-(5-(trifluoromethyl)-1,2,4-oxadiazol-3-yl)pyridin-2-yl)oxy)pyrrolidin-1-yl)methanone]
> 70%: inhibition of growth at 300 ppm (Fusarium culmorum) | inhibition of growth at 300 ppm (Pyricularia oryzae) | inhibition of growth at 300 ppm (Colletotrichum capsici) | inhibition of growth at 300 ppm (Alternaria solani)

FC(F)(F)c1nc(-c2ccc(OC3CCNCC3)cc2)no1 [Compound 85, 3-(4-(piperidin-4-yloxy)phenyl)-5-(trifluoromethyl)-1,2,4-oxadiazole Hydrochloride]
> 70%: inhibition of growth at 300 ppm (Rhizoctonia solani) | pest or weed control at 500 ppm (Phakopsora pachyrhizi) | inhibition of growth at 300 ppm (Corynespora cassicola) | inhibition of growth at 300 ppm (Pyricularia oryzae) | inhibition of growth at 300 ppm (Alternaria solani)

O=C(c1ccncc1)N1CC[C@H](Oc2ccc(-c3noc(C(F)(F)F)n3)cc2)C1 [Compound 13, (S)-pyridin-4-yl(3-(4-(5-(trifluoromethyl)-1,2,4-oxadiazol-3-yl)phenoxy)pyrrolidin-1-yl)methanone]
> 70%: inhibition of growth at 300 ppm (Fusarium culmorum) | inhibition of growth at 300 ppm (Botrytis cinerea) | inhibition of growth at 300 ppm (Rhizoctonia solani) | pest or weed control at 500 ppm (Phakopsora pachyrhizi) | inhibition of growth at 300 ppm (Pyricularia oryzae) | inhibition of growth at 300 ppm (Colletotrichum capsici) | inhibition of growth at 300 ppm (Alternaria solani)

O=C(Cc1ccccn1)N1CC[C@H](Oc2ccc(-c3noc(C(F)(F)F)n3)cc2)C1 [Compound 55, (S)-2-(pyridin-2-yl)-1-(3-(4-(5-(trifluoromethyl)-1,2,4-oxadiazol-3-yl)phenoxy)pyrrolidin-1-yl)ethan-1-one]
> 70%: inhibition of growth at 300 ppm (Fusarium culmorum) | inhibition of growth at 300 ppm (Botrytis cinerea) | inhibition of growth at 300 ppm (Rhizoctonia solani) | inhibition of growth at 300 ppm (Corynespora cassicola) | inhibition of growth at 300 ppm (Pyricularia oryzae) | inhibition of growth at 300 ppm (Colletotrichum capsici)

Cc1ccc(CN2CC[C@H](Oc3ccc(-c4noc(C(F)(F)F)n4)cc3)C2)cc1 [Compound 163, (S)-3-(4-((1-(4-methylbenzyl)pyrrolidin-3-yl)oxy)phenyl)-5-(trifluoromethyl)-1,2,4-oxadiazole]
> 70%: inhibition of growth at 300 ppm (Botrytis cinerea) | inhibition of growth at 300 ppm (Rhizoctonia solani) | inhibition of growth at 300 ppm (Corynespora cassicola) | inhibition of growth at 300 ppm (Pyricularia oryzae) | inhibition of growth at 300 ppm (Alternaria solani)

CC(=O)N1CC(N(C)c2ccc(-c3noc(C(F)(F)F)n3)cc2)C1 [Compound 89, 1-(3-(methyl(4-(5-(trifluoromethyl)-1,2,4-oxadiazol-3-yl)phenyl)amino)azetidin-1-yl)ethan-1-one]
> 70%: inhibition of growth at 300 ppm (Fusarium culmorum) | inhibition of growth at 300 ppm (Botrytis cinerea) | inhibition of growth at 300 ppm (Rhizoctonia solani) | inhibition of growth at 300 ppm (Corynespora cassicola) | inhibition of growth at 300 ppm (Pyricularia oryzae) | inhibition of growth at 300 ppm (Colletotrichum capsici) | inhibition of growth at 300 ppm (Alternaria solani)

CC(=O)N1CC[C@@H](Sc2ccc(-c3noc(C(F)(F)F)n3)cc2)C1 [Compound 165, (R)-1-(3-((4-(5-(trifluoromethyl)-1,2,4-oxadiazol-3-yl)phenyl)thio)pyrrolidin-1-yl)ethan-1-one]
> 70%: inhibition of growth at 300 ppm (Botrytis cinerea) | inhibition of growth at 300 ppm (Rhizoctonia solani) | inhibition of growth at 300 ppm (Corynespora cassicola) | inhibition of growth at 300 ppm (Pyricularia oryzae) | inhibition of growth at 300 ppm (Colletotrichum capsici) | inhibition of growth at 300 ppm (Alternaria solani)

CC(=O)N1CC[C@H](Oc2ccc(-c3noc(C(F)(F)F)n3)cc2F)C1 [Compound 69, (S)-1-(3-(2-fluoro-4-(5-(trifluoromethyl)-1,2,4-oxadiazol-3-yl)phenoxy)pyrrolidin-1-yl)ethan-1-one]
> 70%: inhibition of growth at 300 ppm (Fusarium culmorum) | inhibition of growth at 300 ppm (Botrytis cinerea) | inhibition of growth at 300 ppm (Rhizoctonia solani) | inhibition of growth at 300 ppm (Corynespora cassicola) | inhibition of growth at 300 ppm (Pyricularia oryzae) | inhibition of growth at 300 ppm (Colletotrichum capsici) | inhibition of growth at 300 ppm (Alternaria solani)
